Test results taken from patent US10398751B2, “Pharmaceutical compositions of water soluble peptides with poor solubility in isotonic conditions and methods for their use” (STRONGBRIDGE IRELAND LIMITED, priority 2016, dated 2019).
Like-named read-outs stand apart in the source and are kept apart here.

Assays:
[1] = Density, pH and surface tension of solutions (capillary method); format: physicochemical
Procedure: Tween 80 was used as a control surfactant for comparison. Densities were measured on 1 mL fixed volume samples. […] The effect of veldoreotide acetate on the pH of double distilled water (DDW) was the same at all veldoreotide acetate concentrations. The pH of DDW of 5.0 was reduced to pH 4.5. The effect of veldoreotide acetate on the density of DDW (starting density of DDW was 1.003 g/ml) was concentration dependent from 1.4 mg/ml to 21.5 mg/ml with density ranging from 0.986 to 0.998 g/ml respectively. However, at veldoreotide acetate concentrations of 45 and 102 mg/ml the density was increased above the starting density of DDW. […] The effect of veldoreotide acetate on the surface tension of DDW (starting surface tension was 64.9 dyne/cm) was consistent with veldoreotide acetate behaving as a peptide amphiphile (surfactant). The surface tension of DDW was reduced by veldoreotide acetate at maximum from 64.9 to 45 dyne/cm. In order to elucidate the meaning of this effect, Tween 80 was used as a reference surfactant. Other surfactants include Polexamer 188. The reduction of surface tension induced by Tween 80 was in the range of 40% (from 64.9 dyne/cm to about 39 dyne/cm), in comparison to veldoreotide acetate of 30% (from 64.9 dyne/cm to about 45 dyne/cm). Note that, under these experimental conditions; the effect of Tween 80 indicated a concentration-effect relationship. Whereas, the effect of veldoreotide acetate on the reduction of surface tension was at the same range for all concentrations tested.
The data of table 4 show the surface activity of highly concentrated COR005 acetate (200 mg/ml), with or without additives in WFI, which emulates the preparation conditions of the primary emulsion of the microspheres. The results of Test 1 and 2 (Table 4) show the effect of COR005 acetate on the surface tension of water. When COR005 acetate is dissolved in water the surface tension is reduced by about 36%, from 68.5 dyne/cm for the water alone to 44 dyne/cm for the solution of water with CR005 acetate at 200 mg/ml.

[2] = Comparative surface tension of peptides in water for injection; format: physicochemical; settings: 10 mg/ml in WFI; for Effect of reduced surface tension (%): baseline WFI; for Water surface tension (dyne/cm): baseline WFI 52
[3] = cited from earlier work
[4] = Emulsification of cottonseed oil and water for injection; format: physicochemical; settings: 16.6 weight % cottonseed oil, 74.2 weight % WFI, 9.2 weight % peptide, room temperature
Procedure: Based on its amphiphilic properties, veldoreotide acetate was evaluated by means of emulsion formulation. […] Thus, veldoreotide acetate may be considered a w/o ionic surfactant or hydrotrope with a hydrophilic lipophilic balance (HLB) of 6.
The samples were mixed using 25G syringe and vortexed at room temperature.
Veldoreotide was formulated as a water in oil emulsion using 80% (wt %) cottonseed oil, 20% (wt %) water for injection (WFI) and 1% (wt %) veldoreotide acetate. Specifically, 10 mg of veldoreotide acetate was dissolved in 200 uL WFI in a 5 mL glass vial, 800 mg of cottonseed oil was added and the resulting mixture was stirred under magnetic stirring at room temperature for 15 minutes at 1000 rpm. The emulsion was then viewed under the light microscope and stored under refrigeration. The resulting emulsion was stable and found to be injectable via 27G needle.

| Structure (SMILES) | % change in surface tension compared to baseline ([1]; 7 mg/ml in DDW, 25° C.) | Density (g/ml) Weighted 1 ml ([1]; 7 mg/ml in DDW, 25° C.) | Surface tension (dyne/cm) capillary method ([1]; 7 mg/ml in DDW, 25° C.) | % change in surface tension compared to baseline ([1]; 14 mg/ml in DDW, 25° C.) | Density (g/ml) Weighted 1 ml ([1]; 14 mg/ml in DDW, 25° C.) | Surface tension (dyne/cm) capillary method ([1]; 14 mg/ml in DDW, 25° C.) | % change in surface tension compared to baseline ([1]; 28 mg/ml in DDW, 25° C.) | Density (g/ml) Weighted 1 ml ([1]; 28 mg/ml in DDW, 25° C.) | Surface tension (dyne/cm) capillary method ([1]; 28 mg/ml in DDW, 25° C.) | surface tension of DDW solution ([1]; DDW pH 5.0, 25° C., baseline 64.9 dyne/cm (text summary, concentration not specified)) | reduction of surface tension of water ([1]; DDW, 25° C., baseline 64.9 dyne/cm) | Effect of reduced surface tension (%) [2] | Water surface tension (dyne/cm) [2] | surface area ([3]; microspheres prepared from PLGA and octreotide acetate with 0 glucose (Biomaterials, 2004, 25, 1919-1927)) | surface area ([3]; microspheres prepared from PLGA and octreotide acetate with 0.2% of glucose (Biomaterials, 2004)) | surface area ([3]; microspheres prepared from PLGA and octreotide acetate with 1% of glucose (Biomaterials, 2004)) | emulsification [4] |
| --- | --- | --- | --- | --- | --- | --- | --- | --- | --- | --- | --- | --- | --- | --- | --- | --- | --- |
| CCCCCCCC/C=C\CCCCCCCC(=O)OCCOCC(OCCO)C1OCC(OCCO)C1OCCO (centres unmarked) [Tween 80, reference compound] | −39% | 0.9945 g/mL | 39.6 dyne/cm | −39% | 0.988 g/mL | 39.35 dyne/cm | −40% | 0.975 g/mL | 38.8 dyne/cm | about 39 dyne/cm | ~40% |  |  |  |  |  |  |
| C[C@@H](O)[C@@H]1NC(=O)[C@H](CCCCN)NC(=O)[C@@H](Cc2c[nH]c3ccccc23)NC(=O)[C@H](Cc2ccccc2)NC(=O)[C@@H](NC(=O)[C@H](N)Cc2ccccc2)CSSC[C@@H](C(=O)N[C@H](CO)[C@@H](C)O)NC1=O [Octreotide] |  |  |  |  |  |  |  |  |  |  |  | −27% | 38 dyne/cm | 4.4 m^2/g | 4.7 m^2/g | 4.9 m^2/g | weak emulsification efficiency |
| CC(C)C[C@H](NC(=O)[C@@H](COC(C)(C)C)NC(=O)[C@H](Cc1ccc(O)cc1)NC(=O)[C@H](CO)NC(=O)[C@H](Cc1c[nH]c2ccccc12)NC(=O)[C@H](Cc1cnc[nH]1)NC(=O)[C@@H]1CCC(=O)N1)C(=O)N[C@@H](CCCNC(=N)N)C(=O)N1CCC[C@H]1C(=O)NNC(N)=O [Goserelin] |  |  |  |  |  |  |  |  |  |  |  | −37% | 33 dyne/cm |  |  |  | least potential for emulsion formation |
